Source: patent US20260062422A1 (Halda Therapeutics OpCo, Inc., priority 2022, published 2026)

Biological target: T1, BRD4-BD2 (Homo sapiens, UniProt O60885)
T1 construct: made in house; host or cells: T7 phage grown in an E. coli host derived from BL21
Experiment: bromoKdELECT assay for binding affinity to BRD4-BD2
Conditions: Table 7
Method: Compounds were tested using a bromoKdELECT assay. T7 phage strains displaying bromodomains were grown in parallel in 24-well blocks in an E. coli host derived from the BL21 strain. E. coli were grown to log-phase and infected with T7 phage from a frozen stock (multiplicity of infection=0.4) and incubated with shaking at 32° C. until lysis (90-150 minutes). The lysates were centrifuged (5,000×g) and filtered (0.2 μm) to remove cell debris. Streptavidin-coated magnetic beads were treated with biotinylated small molecule or acetylated peptide ligands for 30 minutes at room temperature to generate affinity resins for bromodomain assays. The liganded beads were blocked with excess biotin and washed with blocking buffer (SeaBlock (Pierce), 1% BSA, 0.05% Tween 20, 1 mM DTT) to remove unbound ligand and to reduce nonspecific phage binding. Binding reactions were assembled by combining bromodomains, liganded affinity beads, and test compounds in 1× binding buffer (17% SeaBlock, 0.33×PBS, 0.04% Tween 20, 0.02% BSA, 0.004% Sodium azide, 7.4 mM DTT). Test compounds were prepared as 1000× stocks in 100% DMSO. Kds were determined using an 11-point 3-fold compound dilution series with one DMSO control point. All compounds for Kd measurements are distributed by acoustic transfer (non-contact dispensing) in 100% DMSO. The compounds were then diluted directly into the assays such that the final concentration of DMSO was 0.09%. All reactions performed in polypropylene 384-well plates. Each was a final volume of 0.02 ml. The assay plates were incubated at room temperature with shaking for 1 hour and the affinity beads were washed with wash buffer (1×PBS, 0.05% Tween 20). The beads were then resuspended in elution buffer (1×PBS, 0.05% Tween 20, 2 μM non-biotinylated affinity ligand) and incubated at room temperature with shaking for 30 minutes. The bromodomain concentration in the eluates was measured by qPCR.

| Structure (SMILES) | Kd |
| --- | --- |
| Cc1sc2c(c1C)C(c1ccc(Cl)cc1)=N[C@@H](CC(=O)NCCOCCOCCOC1CCN(c3ncc(C(=O)N[C@H]4C(C)(C)[C@H](Oc5ccc(C#N)c(Cl)c5)C4(C)C)cn3)CC1)c1nnc(C)n1-2 [Compound I-7] | < 50 nM |
| CCNC(=O)C[C@@H]1N=C(c2ccc(OCCOC3CCN(c4ncc(C(=O)N[C@H]5C(C)(C)[C@H](Oc6ccc(C#N)c(Cl)c6)C5(C)C)cn4)CC3)cc2)c2c(sc(C)c2C)-n2c(C)nnc21 [Compound I-60, N-((1r,3r)-3-(3-chloro-4-cyanophenoxy)-2,2,4,4-tetramethylcyclobutyl)-2-(4-(2-(4-((S)-6-(2-(ethylamino)-2-oxoethyl)-2,3,9-trimethyl-6H-thieno[3,2-f][1,2,4]triazolo[4,3-a][1,4]diazepin-4-yl)phenoxy)ethoxy)piperidin-1-yl)pyrimidine-5-carboxamide] | 50 to 500 nM |
| CCN(C)C(=O)C[C@@H]1N=C(c2ccc(OCCOC3CCN(c4ncc(C(=O)N[C@H]5C(C)(C)[C@H](Oc6ccc(C#N)c(Cl)c6)C5(C)C)cn4)CC3)cc2)c2c(sc(C)c2C)-n2c(C)nnc21 [Compound I-66] | 500 to 2500 nM |
| CCNC(=O)C[C@@H]1N=C(c2ccc(OCC3CN(c4ncc(C(=O)N[C@H]5C(C)(C)[C@H](Oc6ccc(C#N)c(Cl)c6)C5(C)C)cn4)C3)cc2)c2c(sc(C)c2C)-n2c(C)nnc21 [Compound I-71] | < 50 nM |
| CCNC(=O)C[C@@H]1N=C(c2ccc(OCCOC3CCN(c4ncc(C(=O)N[C@H]5C(C)(C)[C@H](Oc6ccc(C#N)c(Cl)c6)C5(C)C)cn4)CC3)c(F)c2F)c2c(sc(C)c2C)-n2c(C)nnc21 [Compound I-73] | 50 to 500 nM |
| CCNC(=O)C[C@@H]1N=C(c2ccc(OCCOC3CCN(c4ncc(C(=O)N[C@H]5C(C)(C)[C@H](Oc6ccc(C#N)c(Cl)c6)C5(C)C)cn4)CC3)cc2F)c2c(sc(C)c2C)-n2c(C)nnc21 [Compound I-75] | 50 to 500 nM |
| CCNC(=O)C[C@@H]1N=C(c2ccc(OCCOC3CCN(c4ncc(C(=O)N[C@H]5C(C)(C)[C@H](Oc6ccc(C#N)c(Cl)c6)C5(C)C)cn4)CC3)c(F)c2)c2c(sc(C)c2C)-n2c(C)nnc21 [Compound I-76] | 50 to 500 nM |
| CCNC(=O)C[C@@H]1N=C(c2ccc(CCCC3CCN(c4ncc(C(=O)N[C@H]5C(C)(C)[C@H](Oc6ccc(C#N)c(Cl)c6)C5(C)C)cn4)CC3)cc2)c2c(sc(C)c2C)-n2c(C)nnc21 [Compound I-95] | > 2500 nM |
| Cc1sc2c(c1C)C(c1ccc(CCCOC3CCN(c4ncc(C(=O)N[C@H]5C(C)(C)[C@H](Oc6ccc(C#N)c(Cl)c6)C5(C)C)cn4)CC3)cc1)=N[C@@H](CC(=O)NC(C)C)c1nnc(C)n1-2 [Compound I-100] | 500 to 2500 nM |
| CCN(C)C(=O)C[C@@H]1N=C(c2ccc(CCCOC3CCN(c4ncc(C(=O)N[C@H]5C(C)(C)[C@H](Oc6ccc(C#N)c(Cl)c6)C5(C)C)cn4)CC3)cc2)c2c(sc(C)c2C)-n2c(C)nnc21 [Compound I-101] | > 2500 nM |
| Cc1sc2c(c1C)C(c1ccc(CCCOC3CCN(c4ncc(C(=O)N[C@H]5C(C)(C)[C@H](Oc6ccc(C#N)c(Cl)c6)C5(C)C)cn4)CC3)cc1)=N[C@@H](CC(=O)NC1CC1)c1nnc(C)n1-2 [Compound I-102] | 50 to 500 nM |
| CCNC(=O)C[C@@H]1N=C(c2ccc(N3CCN(CC4CCN(c5ncc(C(=O)N[C@H]6C(C)(C)[C@H](Oc7ccc(C#N)c(Cl)c7)C6(C)C)cn5)CC4)CC3)cc2)c2c(sc(C)c2C)-n2c(C)nnc21 [Compound I-105, N-[3-(3-chloro-4-cyano-phenoxy)-2,2,4,4-tetramethyl-cyclobutyl]-2-[4-[[4-[4-[(9S)-9-[2-(ethylamino)-2-oxo-ethyl]-4,5,13-trimethyl-3-thia-1,8,11,12-tetrazatricyclo[8.3.0.02,6]trideca-2(6),4,7,10,12-pentaen-7-yl]phenyl]piperazin-1-yl]methyl]-1-piperidyl]pyrimidine-5-carboxamide] | 50 to 500 nM |
| CCNC(=O)C[C@@H]1N=C(c2ccc(N(C)CC3CN(c4ncc(C(=O)N[C@H]5C(C)(C)[C@H](Oc6ccc(C#N)c(Cl)c6)C5(C)C)cn4)C3)cc2)c2c(sc(C)c2C)-n2c(C)nnc21 [Compound I-107] | 50 to 500 nM |
| CCNC(=O)C[C@@H]1N=C(c2ccc(N(C)CCN3CCN(c4ncc(C(=O)N[C@H]5C(C)(C)[C@H](Oc6ccc(C#N)c(Cl)c6)C5(C)C)cn4)CC3)cc2)c2c(sc(C)c2C)-n2c(C)nnc21 [Compound I-108] | 500 to 2500 nM |
| CCNC(=O)C[C@@H]1N=C(c2ccc(N3CCC(N(C)C4CCN(c5ncc(C(=O)N[C@H]6C(C)(C)[C@H](Oc7ccc(C#N)c(Cl)c7)C6(C)C)cn5)CC4)CC3)cc2)c2c(sc(C)c2C)-n2c(C)nnc21 [Compound I-113] | 50 to 500 nM |
| CCNC(=O)C[C@@H]1N=C(c2ccc(N3CCC(OC4CCN(c5ncc(C(=O)N[C@H]6C(C)(C)[C@H](Oc7ccc(C#N)c(Cl)c7)C6(C)C)cn5)CC4)CC3)cc2)c2c(sc(C)c2C)-n2c(C)nnc21 [Compound I-114] | 500 to 2500 nM |
| CCNC(=O)C[C@@H]1N=C(c2ccc(N(C)C3CN(CC4CCN(c5ncc(C(=O)N[C@H]6C(C)(C)[C@H](Oc7ccc(C#N)c(Cl)c7)C6(C)C)cn5)CC4)C3)cc2)c2c(sc(C)c2C)-n2c(C)nnc21 [Compound I-119] | 50 to 500 nM |
| Cc1sc2c(c1C)C(c1ccc(CCCOC3CCN(c4ncc(C(=O)N[C@H]5C(C)(C)[C@H](Oc6ccc(C#N)c(Cl)c6)C5(C)C)cn4)CC3)cc1)=N[C@@H](Cc1ncco1)c1nnc(C)n1-2 [Compound I-131, N-[3-(3-chloro-4-cyano-phenoxy)-2,2,4,4-tetramethyl-cyclobutyl]-2-[4-[3-[4-[(9S)-4,5,13-trimethyl-9-(oxazol-2-ylmethyl)-3-thia-1,8,11,12-tetrazatricyclo[8.3.0.02,6]trideca-2(6),4,7,10,12-pentaen-7-yl]phenyl]propoxy]-1-piperidyl]pyrimidine-5-carboxamide] | > 2500 nM |
| COCC[C@@H]1N=C(c2ccc(CCCOC3CCN(c4ncc(C(=O)N[C@H]5C(C)(C)[C@H](Oc6ccc(C#N)c(Cl)c6)C5(C)C)cn4)CC3)cc2)c2c(sc(C)c2C)-n2c(C)nnc21 [Compound I-227, N-[3-(3-chloro-4-cyano-phenoxy)-2,2,4,4-tetramethyl-cyclobutyl]-2-[4-[3-[4-[(9S)-9-(2-methoxyethyl)-4,5,13-trimethyl-3-thia-1,8,11,12-tetrazatricyclo[8.3.0.02,6]trideca-2(6),4,7,10,12-pentaen-7-yl]phenyl]propoxy]-1-piperidyl]pyrimidine-5-carboxamide] | > 2500 nM |
| Cc1sc2c(c1C)C(c1ccc(CCCOC3CCN(c4ncc(C(=O)N[C@H]5C(C)(C)[C@H](Oc6ccc(C#N)c(Cl)c6)C5(C)C)cn4)CC3)cc1)=N[C@@H](C)c1nnc(C)n1-2 [Compound I-228, N-[3-(3-chloro-4-cyano-phenoxy)-2,2,4,4-tetramethyl-cyclobutyl]-2-[4-[3-[4-[(9S)-4,5,9,13-tetramethyl-3-thia-1,8,11,12-tetrazatricyclo [8.3.0.02,6]trideca-2(6),4,7,10,12-pentaen-7-yl]phenyl]propoxy]-1-piperidyl]pyrimidine-5-carboxamide] | > 2500 nM |
| Cc1sc2c(c1C)C(c1ccc(OCCOC3CCN(c4ncc(C(=O)N[C@H]5C(C)(C)[C@H](Oc6ccc(C#N)c(Cl)c6)C5(C)C)cn4)CC3)cc1)=N[C@@H](CC(=O)OC(C)(C)C)c1nnc(C)n1-2 [Compound I-235, tert-butyl 2-((S)-4-(4-(2-((1-(5-(((1r,3r)-3-(3-chloro-4-cyanophenoxy)-2,2,4,4-tetramethylcyclobutyl)carbamoyl)pyrimidin-2-yl)piperidin-4-yl)oxy)ethoxy)phenyl)-2,3,9-trimethyl-6H-thieno[3,2-f][1,2,4]triazolo[4,3-a][1,4]diazepin-6-yl)acetate] | > 2500 nM |
